Like-named read-outs stand apart in the source and are kept apart here.
What was measured:
PIK3Cα_h = PIK3Cα_h (Homo sapiens (Human), UniProt P42336); assay: KINOMEscan enzyme binding assay, PIK3Cα; conditions: DiscoveRx
Protocol: (§1) Enzyme Binding Assays (KINOMEscan®) Kinase enzyme binding affinities of compounds disclosed herein were determined using the KINOMEscan technology performed by DiscoveRx Corporation, San Diego, Calif., USA (www.kinomescan.com).

PIK3Cβ_h = PIK3Cβ_h (Homo sapiens (Human), UniProt P42338); assay: KINOMEscan enzyme binding assay, PIK3Cβ; conditions: DiscoveRx
Protocol: as §1, with “(www.kinomescan.com). Table A reports the obtained Kd values (nM), with the Kd being the inhibitor binding constant: […]” for “(www.kinomescan.com).”

PIK3Cδ_h = PIK3Cδ_h (Homo sapiens (Human), UniProt O00329); assay: KINOMEscan enzyme binding assay, PIK3Cδ; conditions: DiscoveRx
Protocol: as §1, with “(www.kinomescan.com). Table A reports the obtained Kd values (nM), with the Kd being the inhibitor binding constant: […]” for “(www.kinomescan.com).”

PIK3Cγ_h = PIK3Cγ_h (Homo sapiens (Human), UniProt P48736); assay: KINOMEscan enzyme binding assay, PIK3Cγ; conditions: DiscoveRx
Protocol: as §1

MTOR_h = MTOR_h (Homo sapiens (Human), UniProt P42345); assay: KINOMEscan enzyme binding assay, MTOR; conditions: DiscoveRx
Protocol: as §1

[1] = tested on: Akt phosphorylated at Ser473 in PC-3 cells; assay: Cellular assay: phosphorylation of Akt (Ser473) in PC-3 cells, MSD ELISA; assay type: cell-based; conditions: 60 min incubation with compound, read-out: IC50 pAkt_S473
Protocol: (§2) Cellular activity of PI3Kβ inhibitors was determined by quantifying the phosphorylation of Akt in PC-3 cells. Akt phosphorylated at Ser473 and Thr308 were measured using an enzyme-linked immunosorbent assay (ELISA; Meso Scale Discovery (MSD), Gaithersburg, Md.) and specific primary antibodies from MSD.
(§3) On day 1, PC3 cells (ATCC # […]) were seeded into PerkinElmer MW96 plates at 25.000 cells per well, in 75 μl complete culture medium (DMEM (Dulbecco's Modified Eagle's Medium) high glucose, AQmedia™, D0819, Sigma-Aldrich) containing 10% heat inactivated FCS (Fetal Bovine Serum) and incubated at 37° C., 5% CO2 during 24 hours. On day 2, compound or DMSO (dimethyl sulfoxide) (0.3%) was added and cells were further incubated for 60 min at 37° C., 5% CO2 in a total volume of 100 μl of medium.
(§4) The phosphoprotein assay was executed according to vendor instructions in the Phospho-Akt (Ser473) Assay Whole Cell Lysate Kit (MSD # K15100D-3) and the Phospho-Akt (Thr308) Assay Whole Cell Lysate Kit (MSD # K151DYD-3) using the lysis, blocking and wash buffer provided.
(§5) Briefly, at the end of the cell treatment period, media were removed by aspiration and adherent cells were lysed in 50 μl ice-cold lysis buffer. MSD plates are supplied pre-coated with capture antibodies for Phospho-Akt (Ser473 and Thr308). After blocking, lysates from tissue culture plates were added and plates were washed. Then, a solution containing the detection antibody (anti-total Akt conjugated with an electrochemiluminescent compound-MSD Sulfo-tag label) was added. The signals were detected using an MSD SECTOR Imager 6000 and are proportional to the phospho-Akt titres.
(§6) Data were processed. The percentage of inhibition was plotted against the log concentration of test compounds, and the sigmoidal log concentration-effect curve of best fit was calculated by nonlinear regression analysis. From these concentration-response curves, the IC50 values were calculated. Five concentrations were used for curve fitting.

[2] = tested on: Akt phosphorylated at Thr308 in PC-3 cells; assay: Cellular assay: phosphorylation of Akt (Thr308) in PC-3 cells, MSD ELISA; assay type: cell-based; conditions: 60 min incubation with compound, read-out: IC50 pAkt_Thr308
Protocol: as §2, §3, §4, §5, §6

Chain of PIK3Cα_h (P42336 whole entry): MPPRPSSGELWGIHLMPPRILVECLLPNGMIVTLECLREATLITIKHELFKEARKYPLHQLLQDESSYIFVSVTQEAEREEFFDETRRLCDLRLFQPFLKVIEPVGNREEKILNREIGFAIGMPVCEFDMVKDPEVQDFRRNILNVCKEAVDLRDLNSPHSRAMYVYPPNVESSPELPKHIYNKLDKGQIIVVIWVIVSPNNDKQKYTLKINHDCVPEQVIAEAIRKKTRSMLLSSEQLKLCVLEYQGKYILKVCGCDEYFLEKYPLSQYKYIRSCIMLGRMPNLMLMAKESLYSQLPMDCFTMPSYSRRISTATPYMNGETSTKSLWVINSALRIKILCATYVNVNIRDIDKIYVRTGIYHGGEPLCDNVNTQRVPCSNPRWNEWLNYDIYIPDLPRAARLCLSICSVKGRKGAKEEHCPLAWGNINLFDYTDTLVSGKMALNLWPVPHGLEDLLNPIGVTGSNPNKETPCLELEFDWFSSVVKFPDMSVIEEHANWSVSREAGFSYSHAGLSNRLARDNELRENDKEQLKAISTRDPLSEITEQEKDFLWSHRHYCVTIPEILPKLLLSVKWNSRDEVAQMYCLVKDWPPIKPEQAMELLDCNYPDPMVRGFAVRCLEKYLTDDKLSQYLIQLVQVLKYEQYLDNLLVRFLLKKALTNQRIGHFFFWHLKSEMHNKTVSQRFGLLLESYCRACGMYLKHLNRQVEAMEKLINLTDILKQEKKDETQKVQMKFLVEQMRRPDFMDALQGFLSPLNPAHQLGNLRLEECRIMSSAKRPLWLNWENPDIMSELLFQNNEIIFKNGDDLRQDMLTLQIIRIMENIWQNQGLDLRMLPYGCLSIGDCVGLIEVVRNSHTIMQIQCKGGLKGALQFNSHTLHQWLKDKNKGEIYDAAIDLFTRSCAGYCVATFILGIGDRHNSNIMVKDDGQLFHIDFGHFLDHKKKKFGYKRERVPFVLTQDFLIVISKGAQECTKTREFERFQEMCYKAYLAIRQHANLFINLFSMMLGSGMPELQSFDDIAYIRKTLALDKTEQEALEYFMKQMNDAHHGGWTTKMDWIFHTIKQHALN
Chain of PIK3Cδ_h (O00329 whole entry): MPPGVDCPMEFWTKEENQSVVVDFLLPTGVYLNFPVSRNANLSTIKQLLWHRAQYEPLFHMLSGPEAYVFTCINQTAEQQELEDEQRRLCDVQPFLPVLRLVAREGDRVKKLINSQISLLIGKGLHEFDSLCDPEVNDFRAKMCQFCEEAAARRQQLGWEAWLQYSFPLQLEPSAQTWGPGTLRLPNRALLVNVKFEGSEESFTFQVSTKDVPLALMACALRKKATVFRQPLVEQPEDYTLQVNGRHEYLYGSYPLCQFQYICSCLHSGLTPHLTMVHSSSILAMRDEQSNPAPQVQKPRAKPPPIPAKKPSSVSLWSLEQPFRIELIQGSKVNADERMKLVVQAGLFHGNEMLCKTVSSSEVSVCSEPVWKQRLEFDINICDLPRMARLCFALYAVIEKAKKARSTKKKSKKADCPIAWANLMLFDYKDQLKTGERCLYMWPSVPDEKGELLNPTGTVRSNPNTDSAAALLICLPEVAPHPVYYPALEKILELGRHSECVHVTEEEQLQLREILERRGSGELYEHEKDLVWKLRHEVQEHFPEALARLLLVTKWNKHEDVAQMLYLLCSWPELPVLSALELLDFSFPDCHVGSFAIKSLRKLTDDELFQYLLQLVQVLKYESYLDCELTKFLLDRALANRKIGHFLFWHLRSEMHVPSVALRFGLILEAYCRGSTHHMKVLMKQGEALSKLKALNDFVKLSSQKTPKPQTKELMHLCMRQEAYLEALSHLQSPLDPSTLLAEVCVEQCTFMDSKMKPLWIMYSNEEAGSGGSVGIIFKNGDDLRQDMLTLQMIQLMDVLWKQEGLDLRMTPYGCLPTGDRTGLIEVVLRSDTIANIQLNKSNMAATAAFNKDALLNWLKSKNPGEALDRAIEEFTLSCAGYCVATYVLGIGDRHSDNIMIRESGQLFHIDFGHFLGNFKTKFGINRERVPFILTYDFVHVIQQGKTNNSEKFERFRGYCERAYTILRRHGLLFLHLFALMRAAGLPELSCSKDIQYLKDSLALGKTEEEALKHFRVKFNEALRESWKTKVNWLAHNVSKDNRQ
Chain of PIK3Cγ_h (P48736 whole entry): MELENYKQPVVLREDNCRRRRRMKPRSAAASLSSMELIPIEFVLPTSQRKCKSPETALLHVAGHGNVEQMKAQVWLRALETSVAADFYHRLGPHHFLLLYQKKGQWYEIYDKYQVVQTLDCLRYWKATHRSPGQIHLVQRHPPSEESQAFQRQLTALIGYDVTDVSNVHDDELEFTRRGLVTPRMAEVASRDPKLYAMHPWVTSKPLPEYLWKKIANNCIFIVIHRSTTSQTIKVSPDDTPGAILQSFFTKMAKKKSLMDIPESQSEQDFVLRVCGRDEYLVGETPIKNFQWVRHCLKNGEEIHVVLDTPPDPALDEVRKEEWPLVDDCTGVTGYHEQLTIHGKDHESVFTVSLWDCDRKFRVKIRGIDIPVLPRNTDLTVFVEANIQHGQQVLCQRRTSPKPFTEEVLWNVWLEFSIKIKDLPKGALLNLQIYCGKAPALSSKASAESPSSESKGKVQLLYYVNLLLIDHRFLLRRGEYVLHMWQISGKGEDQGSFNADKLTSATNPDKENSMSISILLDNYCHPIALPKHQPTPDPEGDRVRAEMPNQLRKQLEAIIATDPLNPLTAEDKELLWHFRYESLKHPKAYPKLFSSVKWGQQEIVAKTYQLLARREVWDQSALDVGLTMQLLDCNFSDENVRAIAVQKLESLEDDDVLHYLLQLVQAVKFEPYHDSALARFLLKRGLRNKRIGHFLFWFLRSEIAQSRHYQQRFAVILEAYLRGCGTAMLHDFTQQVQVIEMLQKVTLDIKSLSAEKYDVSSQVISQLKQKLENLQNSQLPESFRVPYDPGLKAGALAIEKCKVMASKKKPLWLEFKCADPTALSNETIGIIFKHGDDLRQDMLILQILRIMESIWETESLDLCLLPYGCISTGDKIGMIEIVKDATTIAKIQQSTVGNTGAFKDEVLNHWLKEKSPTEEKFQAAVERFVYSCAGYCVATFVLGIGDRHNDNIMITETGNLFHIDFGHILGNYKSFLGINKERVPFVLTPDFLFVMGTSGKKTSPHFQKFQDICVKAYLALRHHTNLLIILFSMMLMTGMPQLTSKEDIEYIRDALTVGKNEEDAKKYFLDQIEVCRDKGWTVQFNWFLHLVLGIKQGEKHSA
Chain of PIK3Cβ_h (P42338 whole entry): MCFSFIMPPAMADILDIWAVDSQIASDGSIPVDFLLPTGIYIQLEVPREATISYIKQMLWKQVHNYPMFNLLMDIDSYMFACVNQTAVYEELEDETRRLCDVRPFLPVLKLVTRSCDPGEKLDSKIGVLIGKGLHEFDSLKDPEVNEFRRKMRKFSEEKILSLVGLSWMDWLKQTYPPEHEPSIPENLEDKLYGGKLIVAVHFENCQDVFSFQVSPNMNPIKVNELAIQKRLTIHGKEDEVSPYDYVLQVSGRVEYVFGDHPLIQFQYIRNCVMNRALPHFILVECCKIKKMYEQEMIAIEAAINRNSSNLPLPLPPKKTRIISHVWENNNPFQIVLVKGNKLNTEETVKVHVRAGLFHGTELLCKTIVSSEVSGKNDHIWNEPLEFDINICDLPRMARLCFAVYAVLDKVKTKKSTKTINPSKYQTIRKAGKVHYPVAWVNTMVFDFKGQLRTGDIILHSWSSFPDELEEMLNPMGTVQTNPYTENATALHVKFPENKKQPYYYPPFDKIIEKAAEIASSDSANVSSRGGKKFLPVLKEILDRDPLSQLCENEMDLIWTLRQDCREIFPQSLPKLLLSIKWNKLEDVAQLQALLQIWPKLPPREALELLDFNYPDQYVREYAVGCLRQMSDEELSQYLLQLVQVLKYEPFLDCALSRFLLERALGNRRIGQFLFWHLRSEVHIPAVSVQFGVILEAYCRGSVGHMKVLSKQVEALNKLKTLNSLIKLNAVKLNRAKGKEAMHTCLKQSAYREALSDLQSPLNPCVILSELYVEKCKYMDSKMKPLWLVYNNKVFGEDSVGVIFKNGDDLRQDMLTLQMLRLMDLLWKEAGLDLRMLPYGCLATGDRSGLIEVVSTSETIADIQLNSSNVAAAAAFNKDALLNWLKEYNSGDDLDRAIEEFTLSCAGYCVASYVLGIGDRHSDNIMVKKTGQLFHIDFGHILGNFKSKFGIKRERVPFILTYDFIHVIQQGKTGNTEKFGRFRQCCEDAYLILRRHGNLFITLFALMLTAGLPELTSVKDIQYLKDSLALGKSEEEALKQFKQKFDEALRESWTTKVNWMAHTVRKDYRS

SMILES | Kd (PIK3Cα_h) | Kd (PIK3Cβ_h) | Kd (PIK3Cδ_h) | Kd (PIK3Cγ_h) | Kd (MTOR_h) | IC50 ([1]; Homo sapiens, PC-3, 1 h) | IC50 ([2]; Homo sapiens, PC-3, 1 h) | IC50 [1] | IC50 [2]
Cc1nc2c(N)cc(N3CCOCC3)nn2c1Nc1cccc(C(F)(F)F)c1C [Compound 33] | 5130 nM | 6 nM | 171 nM | 11400 nM | 20300 nM | 12 nM | 17 nM |  | 
Cc1nc2c(-c3ncc[nH]3)cc(N3CCOCC3)nn2c1Nc1cccc(C(F)(F)F)c1C [Compound 34] | 2240 nM | 3 nM | 81 nM | 6920 nM | > 10000 nM | ~56 nM | ~32 nM |  | 
Cc1nc2c(C(=O)O)cc(N3CCOCC3)nn2c1Nc1cccc(C(F)(F)F)c1C [Compound 36] | 669 nM | 0.9 nM | 58 nM | 4050 nM | 21700 nM | ~331 nM | 195 nM |  | 
Cc1c(Nc2c(CO)nc3c(C(N)=O)cc(N4CCOCC4)nn23)cccc1C(F)(F)F [Compound 37] | 575 nM | 2.2 nM | 214 nM | 759 nM | 3240 nM | 11 nM | 20 nM |  | 
Cc1nc2c(N)cc(N3CCOCC3)nn2c1Nc1cccc(C(F)(F)F)c1CN1CCOCC1 [Compound 38] | 4050 nM | 4 nM | 15 nM | 12900 nM | 9370 nM | 18 nM | 10 nM |  | 
Cc1cccc(Nc2c(C)nc3c(N)cc(N4CCOCC4)nn23)c1C [Compound 39] | 2570 nM | 1.1 nM | 31 nM | 8510 nM | 4900 nM | 34 nM | ~43 nM |  | 
Cc1nc2c(C(N)=O)cc(N3CCOCC3)nn2c1Nc1cccc(C(F)(F)F)c1C [Compound 40] | 2040 nM | 4 nM | 372 nM | 3900 nM | 20100 nM | 105 nM | 60 nM |  | 
Cc1nc2c(-c3cnc[nH]3)cc(N3CCOCC3)nn2c1Nc1cccc(C(F)(F)F)c1CN1CCOCC1 [Compound 41] | 275 nM | 7 nM | 12 nM | 955 nM | 1700 nM | ~37 nM | 22 nM |  | 
Cc1nc2c(-c3cnc[nH]3)cc(N3CCOCC3)nn2c1Nc1cccc2c1CNCC2 [Compound 42] | 347 nM | 0.6 nM | 5 nM | 2290 nM | 1440 nM | > 513 nM | > 513 nM |  | 
Cc1nc2c(N)cc(N3CCOCC3)nn2c1Nc1cccc(C(F)(F)F)c1CN1CCS(=O)(=O)CC1 [Compound 43] | 3310 nM | 2 nM | 47 nM | 7760 nM | > 30200 nM | ~339 nM | 170 nM |  | 
Cc1nc2c(N)cc(N3CCOCC3)nn2c1Nc1cccc(F)c1C [Compound 44] | 9330 nM | 1.5 nM | 105 nM | 14800 nM | 5370 nM | 34 nM | ~11 nM |  | 
Cc1nc2c(-c3cnc[nH]3)cc(N3CCOCC3)nn2c1Nc1cccc(C(F)(F)F)c1CN1CC(O)C1 [Compound 46] | 661 nM | 3 nM | 11 nM | 741 nM | 1230 nM | 174 nM | 17 nM |  | 
Cc1nc2c(N)cc(N3CCOCC3)nn2c1Nc1cccc(C(F)(F)F)c1CN1CCC(S(C)(=O)=O)C1 (stereo not shown) [Compound 47] | 10500 nM | 2.5 nM | 47 nM | 20900 nM | > 30200 nM | 59 nM | 44 nM |  | 
Cc1nc2c(N)cc(N3CCOCC3)nn2c1Nc1cccc(C(F)(F)F)c1CN1CC(S(C)(=O)=O)C1 [Compound 48] | 2750 nM | 1.7 nM | 34 nM | 6170 nM | > 30200 nM | 98 nM | 55 nM |  | 
Cc1nc2c(N)cc(N3CCOCC3)nn2c1Nc1cccc(C(F)(F)F)c1CN1CCC2(C1)CS(=O)(=O)C2 [Compound 49] | 13500 nM | 9 nM | 331 nM | > 30200 nM | > 30200 nM | 45 nM | ~21 nM |  | 
Cc1nc2c(-c3c[nH]cn3)cc(N3CCOCC3)nn2c1Nc1cccc(F)c1C [Compound 50] | 537 nM | 1.3 nM | 33 nM | 1260 nM | 776 nM | 60 nM | 38 nM |  | 
Cc1nc2c(N)cc(N3CCOCC3)nn2c1Nc1cccc(C(F)(F)F)c1CN1CC(O)C1 [Compound 52] | 5750 nM | 1.9 nM | 40 nM | 4790 nM | 10700 nM | 44 nM | 33 nM |  | 
Cc1nc2c(N)cc(N3CCOCC3)nn2c1Nc1cccc(C(F)(F)F)c1CN1CC2(CCS2(=O)=O)C1 [Compound 53] | 10000 nM | 5 nM | 73 nM | 19600 nM | > 30200 nM | ~176 nM | ~87 nM |  | 
Cc1nc2c(N)cc(N3CCOCC3)nn2c1Nc1cccc(C(F)(F)F)c1CN1CCC(S(C)(=O)=O)CC1 [Compound 54] | 16200 nM | 12 nM | 490 nM | > 30200 nM | > 30200 nM | 200 nM | 98 nM |  | 
Cc1nc2c(N)cc(N3CCOCC3)nn2c1Nc1cccc(C(F)(F)F)c1CNC(C)CO (stereo not shown) [Compound 55] | 1120 nM | 0.9 nM | 9 nM | 12600 nM | > 30200 nM | 10 nM | 7 nM |  | 
Cc1nc2c(N)cc(N3CCOCC3)nn2c1Nc1cccc(C(F)(F)F)c1CNC(C)CO (stereo not shown) [Compound 56] | 1710 nM | 1.2 nM | 16 nM | 8680 nM | > 30200 nM |  |  | ~7 nM | ~5 nM
Cc1nc2c(-c3c[nH]cn3)cc(N3CCOCC3)nn2c1Nc1cccc(C(F)(F)F)c1CN1CCN(C)CC1 [Compound 57] | 339 nM | 0.7 nM | 9 nM | 891 nM | 6310 nM | 34 nM | 26 nM |  | 
Cc1nc2c(N)cc(N3CCOCC3)nn2c1Nc1cccc(C(F)(F)F)c1CN1CCN(C)CC1 [Compound 58] | 4270 nM | 0.4 nM | 20 nM | 12300 nM | 21400 nM | 21 nM | 17 nM |  | 
Cc1nc2c(N)cc(N3CCOCC3)nn2c1Nc1cccc(C(F)(F)F)c1C1CCNCC1 [Compound 59] | 6460 nM | 0.1 nM | 11 nM | 3390 nM | > 30200 nM | 85 nM | ~60 nM |  | 
Cc1cccc(Nc2c(C)nc3c(N)cc(N4CCOCC4)nn23)c1C1CCNCC1 [Compound 60] | 7240 nM | 0.2 nM | 16 nM | 9770 nM | > 30200 nM | 219 nM | ~148 nM |  | 
CC(=O)OCc1nc2c(N)cc(N3CCOCC3)nn2c1Cc1cccc(C(F)(F)F)c1C [Compound 61] | > 30200 nM | 12 nM | 1660 nM | > 30200 nM | > 30200 nM | 105 nM | 151 nM |  | 
Cc1nc2c(N)cc(N3CCOCC3)nn2c1Nc1cccc(C(F)(F)F)c1CN1CCCC1 [Compound 62] | 22400 nM | 10 nM | 35 nM | 30200 nM | > 30200 nM | 110 nM | ~74 nM |  | 
Cc1nc2c(N)cc(N3CCOCC3)nn2c1Nc1cccc(F)c1CN1CCOCC1 [Compound 63] | 4170 nM | 2.2 nM | 42 nM | 20000 nM | 3160 nM | 138 nM | 96 nM |  | 
